According to patent US20110136868A1, “AGENTS FOR INHIBITING OSTEOCLASTOGENESIS AND/OR OSTEOCLAST ACTIVATION” (University of Oxford, priority 2009, published 2011):
Entries after “also recorded” stand apart in the source; their conditions may differ.

Tests used:
Mouse bone marrow cells [1] = assay: in vitro RANKL-dependent osteoclastogenesis, TRAP positive osteoclast count; type: cell-based
Experimental: Cultures on plastic plates were fixed and stained for TRAP (tartrate resistant acid […]). TRAP positive multi-nuclear (>3 nuclei) osteoclast cells were counted.
B. Mouse bone marrow cells were cultured in the presence of 25 ng/ml M-CSF with 50 ng/ml RANKL in 48-well plates. On day 3 d-PDMP (1.25, 5 or 20 μM), NB-DNJ, NB-DGJ, or N-OD-DNJ (5, 50, or 500 μM) were added. Cells were cultured for another 24 hours before fixed and stained for TRAP. TRAP positive osteoclast cells mature were counted on day 4 (left). Morphology of 4 day osteoclasts.

[2] = test system: MAPK signaling (ERK, p38, JNK); assay: GM3-induced ERK, P38, JNK phosphorylation in OC, immunoblot; type: cell-based, mouse
Experimental: D. OC were cultured with M-CSF+RANKL to day 3 then starved in 0.5% serum medium overnight. Cells were treated with GM3 or GM3+NB-DNJ for the time points indicated and then immunoblotted with α-pERK1/2, α-pP38, α-pJNK antibodies. Membranes were stripped and restained with α-ERK, α-P38, α-JNK antibodies.

osteoclast activation [3] = assay: in vivo alpha-galactosylceramide-induced OC activation, serum CTX levels; parameters: species or system C57BL/6 mice
Experimental: NB-DNJ (500 mg/Kg) or PBS were injected intraperitoneal (i.p.) once a day for 6 consecutive days in 8 wk old C57BL/6 mice. Alpha-galactosylceramide or PBS was administered by a single i.p. injection of 2 μg on day 3. Serum collected on day 7 was used to determine carboxyterminal cross-linking telopeptide of type 1 collagen (CTX) levels (n=4-5 8 wk old female C57BL/6 mice).

NFATc1 = NFATc1 nuclear accumulation in OC (immunofluorescence, Western blot of nuclear protein); type: cell-based, mouse
Experimental: (§1) BMCs were cultured to day 3 then starved in 0.5% serum medium overnight. Cells were treated with RANKL (A) or M-CSF (B) for the time points indicated and then immunoblotted with α-pERK1/2, α-pP38, α-pJNK antibodies. Membranes were stripped and restained with α-ERK, α-P38, α-JNK antibodies. […] Overnight serum starved OC were treated as indicated as subsequently stained with anti-NFATc1 and viewed by immunofluorescent microscopy. NB-DNJ abrogated the M-CSF+RANKL-induced accumulation of NFAtc1 in the nyclei. (D) BMCs were cultured 48 h with different combination of M-CSF, RANKL and NB-DNJ. Cells were collected and nuclear protein extracted and NFATc1 expression was checked by Western blot. Staining of histone-1 served as loading control.

osteoclast activation [4] = assay: in vivo RANKL-induced OC activation, serum CTX levels; parameters: species or system mice; conditions: NB-DNJ 500 mg/Kg i.p. daily, RANKL 4 mg/day i.p. from day 3
β-glucosidase = conditions: Platt et al. 1994; cited from earlier work
α-glucosidase = conditions: Platt et al. 1994; cited from earlier work
[5] = test system: RAW 264.7 murine macrophage cells; assay: Association of TRAF6 and Src with lipid rafts, sucrose gradient fractionation; type: cell-based; conditions: 50 ng/ml RANKL, 4 days
Experimental: Localization of TRAF6, […] GM1 gangliosides in lipid rafts (fraction 3-5) or non-raft fractions (fraction 7-9) in RAW 264.7 murine macrophage cells were cultured in medium only (control), in the presence of 50 ng/ml RANKL or RANKL+NB-DNJ in 48-well plates for 4 days. Cell lysates were prepared and separated using discontinuous sucrose gradient ultracentrifugation. A total of 9 fractions (1 ml each) were collected from the top to the bottom of the gradients, fraction 2 to 5 were positive for GM1 gangliosides, i.e. contained lipid rafts. The non-raft fractions were 7 to 9. Without RANKL, TRAF6 localises in the non-raft fraction while Src is presented in both raft and nonraft fractions. After RANKL treatment, TRAF6 was detected in raft fraction and Src almost totally shifted into the raft fractions.

[6] = test system: MAPK signaling (ERK, p38, JNK); assay: MAPK signalling during osteoclastogenesis, immunoblot pERK1/2, pP38, pJNK after RANKL or M-CSF; type: cell-based, mouse; conditions: BMCs day 3, serum starved overnight
Experimental: as §1

[7] = test system: human, monocyte-derived OC; assay: RANKL- and M-CSF-dependent development of human monocyte-derived OC; type: cell-based; conditions: added either in the beginning or during OC differentiation cultures
[8] = molecular target: T1, ceramide glucosyltransferase (CGT) (Homo sapiens, UniProt Q16739); conditions: literature; cited from earlier work
T1 sequence (Q16739 1-394): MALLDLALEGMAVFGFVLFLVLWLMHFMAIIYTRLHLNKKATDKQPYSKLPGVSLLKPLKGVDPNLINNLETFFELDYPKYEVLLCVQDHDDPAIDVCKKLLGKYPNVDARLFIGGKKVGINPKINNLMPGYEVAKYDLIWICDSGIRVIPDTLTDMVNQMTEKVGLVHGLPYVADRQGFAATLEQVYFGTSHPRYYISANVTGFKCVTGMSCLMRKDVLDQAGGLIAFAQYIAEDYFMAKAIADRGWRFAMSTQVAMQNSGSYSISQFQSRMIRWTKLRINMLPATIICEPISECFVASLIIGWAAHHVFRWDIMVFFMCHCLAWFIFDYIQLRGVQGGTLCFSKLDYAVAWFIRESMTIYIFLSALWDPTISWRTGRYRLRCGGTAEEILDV

osteoclast formation = conditions: Iwamoto et al. 2001, cited from earlier work
Mouse bone marrow cells [9] = assay: Promotion of osteoclastogenesis by GM3 and IGF-1 with M-CSF and RANKL, TRAP positive mature osteoclast count; type: cell-based
Experimental: A. Mouse bone marrow cells were cultured in the presence of 25 ng/ml M-CSF with 50 ng/ml RANKL and GM3 (0.05, 0.5 or 5 μM) in 48-well plates for 4 days. Cultures on plastic plates were fixed and stained for TRAP. TRAP positive mature osteoclast cells were counted.
As well as RANKL+M-CSF, IGF-1 at the indicated concentrations was added.
C. […] OC were developed in the presence of RANKL+M-CSF (control), or these two cytokines plus IGF-1, GM3 or IGF-1+GM3.

CCCCN1C[C@H](O)[C@@H](O)[C@@H](O)[C@H]1CO [NB-DGJ, N-butyl-deoxygalactonojirimycin]
reduction in OC activation compared with NB-DNJ (Mouse bone marrow cells [1]): significantly less potent

CCCCN1C[C@H](O)[C@@H](O)[C@H](O)[C@H]1CO [NB-DNJ, N-butyl-deoxynojirimycin]
GM3-promoted phosphorylation of ERK, P38 and JNK, effect of NB-DNJ [2]: abrogated | serum CTX levels, αGC-induced OC activation (osteoclast activation [3]; NB-DNJ 500 mg/Kg i.p. daily plus alpha-galactosylceramide 2 μg i.p. day 3, serum day 7): inhibits a-galactosylceramide-induced OC activation; also recorded: returned to baseline | serum CTX levels, NB-DNJ only (osteoclast activation [3]; mice receiving only NB-DNJ, p>0.05): not significantly different to vehicle controls | nuclear NFATc1 expression (NFATc1; Western blot, BMCs cultured 48 h with M-CSF, RANKL): Considerably less nuclear NFTc1 | M-CSF+RANKL-induced accumulation of NFATc1 in the nuclei (NFATc1; immunofluorescent microscopy, serum starved OC): abrogated; also recorded: reduced localisation of NFATc in the nucleus | serum CTX levels, RANKL-induced OC activation (osteoclast activation [4]): inhibits RANKL-induced OC activation | β-glucosidase inhibitory activity (β-glucosidase): have both α- and β-glucosidase inhibitory activities | α-glucosidase inhibitory activity (α-glucosidase): have both α- and β-glucosidase inhibitory activities | RANKL-induced localisation of TRAF6 and Src in lipid rafts [5]: TRAF6 and Src are excluded from the rafts | RANKL- and M-CSF-dependent phosphorylation of ERK, JNK and p38 [6]: phosphotylation of p38 and to a lesser extend of ERKa,d Jnk is observed; also recorded: significantly reduced | inhibition of RANKL- and M-CSF-dependent development of human monocyte-derived OC [7]: inhibit RANKL- and M-CSF-dependent development of murine as well as human, monocyte-derived OC in a dose dependent manner | inhibition of RANKL- and M-CSF-dependent development of murine OC (Mouse bone marrow cells [1]; added either in the beginning or during OC differentiation cultures): inhibit RANKL- and M-CSF-dependent development of murine as well as human, monocyte-derived OC in a dose dependent manner

CCCCCCCCCC(=O)N[C@H](CN1CCOCC1)[C@H](O)c1ccccc1 [d-PDMP, D-threo-1-phenyl-2-decanoylamin-3-morpholino-1-propanol]
inhibitory effect on CGT [8]: known CGT inhibitor | inhibition of osteoclast formation / OC development (osteoclast formation): can inhibit the osteoclast formation; also recorded: can prevent OC development | reduction in OC activation compared with NB-DNJ (Mouse bone marrow cells [1]): as effective

CCCCCCCCCCCCCCCCCCCCCCCCCC(=O)N[C@@H](CO[C@H]1O[C@H](CO)[C@H](O)[C@H](O)[C@H]1O)[C@H](O)[C@H](O)CCCCCCCCCCCCCC [αGC, alpha-galactosylceramide]
increase of serum CTX levels (osteoclast activation [3]; mice receiving αGC, p<0.01): ~50%

IGF-1: growth factor known to promote myeloma growth and OC activation
osteoclastogenesis with IGF-1 (Mouse bone marrow cells [9]; RANKL+M-CSF plus IGF-1): promotes osteoclastogenesis | OC maturation, GM3 plus IGF-1 (Mouse bone marrow cells [9]; RANKL+M-CSF plus IGF-1 and GM3): co-operates with GM3 in promoting osteoclastogenesis

lactosylceramide
effect on RANKL-dependent osteoclastogenesis (osteoclast formation; exogenous, in vitro): synergistic effect
